Drawing on ChEMBL document CHEMBL1681673, “Anti-tumor pyrimidinylpiperazines bind to the prosurvival Bcl-2 protein family member Bcl-XL” (Bioorg Med Chem Lett, 2011), this text covers GI50 and Ki for 22 compounds.

pKi: −log10 of the molar value.

The first test has as its system A549. Kind of test: Growth inhibition of human A549 cells after 24 hrs by SRB assay. The test is classed as functional. The note with it: A549, 24 h. For orientation: In SRB staining, fixed cells bind dye roughly in proportion to their protein.
Compound `Brc1ccccc1CN1CCN(c2ncc(Cc3ccccc3)cn2)CC1` came in with a GI50 of 86.5 µM. In other words, the double-digit micromolar range.
Still for that read-out and setting: under `c1ccc(Cc2cnc(N3CCN(Cc4ccccc4-c4cn[nH]c4)CC3)nc2)cc1` stands 8.43 µM; under `O=[N+]([O-])c1ccc(Cl)c(CN2CCN(c3ncc(Cc4ccccc4)cn3)CC2)c1`, greater than 100 µM.
Same read-out and setting: under `c1ccc(Cc2cnc(N3CCN(Cc4ccccc4)CC3)nc2)cc1` stands 49.6 µM; under `Nc1cccc(CN2CCN(c3ncc(Cc4ccccc4)cn3)CC2)c1`, 75.4 µM; under `CCc1cnc(N2CCN(Cc3ccccc3Br)CC2)nc1`, 70.9 µM.
Still for that read-out and setting: under `CCc1cnc(N2CCN(Cc3cccc(N)c3)CC2)nc1` stands greater than 100 µM; under `O=[N+]([O-])c1cccc(CN2CCN(c3ncc(Cc4ccccc4)cn3)CC2)c1`, 61.2 µM.
Compound `Oc1ccc(Br)c(CN2CCN(c3ncc(Cc4ccccc4)cn3)CC2)c1` returned a GI50 of 23.7 µM.
The same measure, in the same setting: as for `CCc1cnc(N2CCN(Cc3cc(O)ccc3Br)CC2)nc1`, the figure is 57.6 µM.
`Nc1ccc(Cl)c(CN2CCN(c3ncc(Cc4ccccc4)cn3)CC2)c1` registered a GI50 of 15.1 µM.
On the same count and under the same terms, under `Fc1ccc(-c2cn[nH]c2)c(CN2CCN(c3ncc(Cc4ccccc4)cn3)CC2)c1` stands 9.91 µM; under `CCc1cnc(N2CCN(Cc3cc(N)ccc3Cl)CC2)nc1`, 62.9 µM; under `CCc1cnc(N2CCN(Cc3cc([N+](=O)[O-])ccc3Cl)CC2)nc1`, 67.2 µM.
Same read-out and setting: as for `CCc1cnc(N2CCN(Cc3ccccc3)CC2)nc1`, the figure is greater than 100 µM.
Same read-out and setting: under `CCc1cnc(N2CCN(Cc3cccc(O)c3)CC2)nc1` stands greater than 100 µM; under `CCc1cnc(N2CCN(Cc3cc(F)ccc3-c3cn[nH]c3)CC2)nc1`, 49.2 µM.
Compound `CCc1cnc(N2CCN(Cc3cc(F)ccc3Br)CC2)nc1` registered a GI50 greater than 100 µM.
Take `Fc1ccc(Br)c(CN2CCN(c3ncc(Cc4ccccc4)cn3)CC2)c1`: the GI50 is greater than 100 µM.
The same measure, in the same setting: under `CCc1cnc(N2CCN(Cc3cccc([N+](=O)[O-])c3)CC2)nc1` stands 88 µM.
Take `Oc1cccc(CN2CCN(c3ncc(Cc4ccccc4)cn3)CC2)c1`: the GI50 was found to be 51.1 µM.
`CCc1cnc(N2CCN(Cc3ccccc3-c3cn[nH]c3)CC2)nc1` came in with a GI50 of 51.4 µM. This GI50 and that of the compound before are within 1.5-fold of each other.

The target of another test is Bcl-2-like protein 1 (Homo sapiens, UniProt Q07817). The test can be described thus: Binding affinity to Bcl-xL after 2 hrs by fluorescein-labeled Bak-BH3 peptide competition binding assay.
Chain of Bcl-2-like protein 1 (Q07817 whole entry): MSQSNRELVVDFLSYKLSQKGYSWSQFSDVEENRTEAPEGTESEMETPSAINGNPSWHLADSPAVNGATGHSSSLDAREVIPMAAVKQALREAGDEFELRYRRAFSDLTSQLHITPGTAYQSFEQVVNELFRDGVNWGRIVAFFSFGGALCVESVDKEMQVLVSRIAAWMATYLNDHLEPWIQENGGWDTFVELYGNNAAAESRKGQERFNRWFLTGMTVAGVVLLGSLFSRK
Details: not given
Compound `c1ccc(Cc2cnc(N3CCN(Cc4ccccc4-c4cn[nH]c4)CC3)nc2)cc1` gave a pKi of 6.90.
`Nc1ccc(Cl)c(CN2CCN(c3ncc(Cc4ccccc4)cn3)CC2)c1` gave a pKi of 6.77.
Still for that read-out and setting: as for `Oc1cccc(CN2CCN(c3ncc(Cc4ccccc4)cn3)CC2)c1`, the figure is 6.28.

As a reminder, the GI50 is the concentration giving 50% growth inhibition. What is called pKi is the Ki on a negative log10 scale, so that one unit is a factor of ten. A higher pKi goes with a small Ki.
